Values joined by “and” are separate entries in the source; they are usually repeats but may differ in a detail not shown here. Identical values can stand only once. Like-named read-outs stand apart in the source and are kept apart here.
Assays:
[1] = tested on: tbaqp1-2-3 null cells expressing TbAQP2 position 84, 118 and 218 Trp and Met mutants; experiment: Drug sensitivity assay (resazurin), pentamidine and SHAM; type: cell-based, Trypanosoma brucei brucei
[2] = tested on: tbaqp1-2-3 null cells expressing TbAQP2WT; experiment: as above; type: cell-based, Trypanosoma brucei brucei; details: +AQP2 W.T in KO AQP1-3
tbaqp1-2-3 null cells = experiment: as above; type: cell-based, Trypanosoma brucei brucei; details: KO AQP1-3
TbAQP2/HAPT1 = TbAQP2/HAPT1 (Trypanosoma brucei brucei, UniProt Q6ZXT3); experiment: cell-based; type: cell-based
TbAQP2/HAPT1, sequence (Q6ZXT3 whole entry): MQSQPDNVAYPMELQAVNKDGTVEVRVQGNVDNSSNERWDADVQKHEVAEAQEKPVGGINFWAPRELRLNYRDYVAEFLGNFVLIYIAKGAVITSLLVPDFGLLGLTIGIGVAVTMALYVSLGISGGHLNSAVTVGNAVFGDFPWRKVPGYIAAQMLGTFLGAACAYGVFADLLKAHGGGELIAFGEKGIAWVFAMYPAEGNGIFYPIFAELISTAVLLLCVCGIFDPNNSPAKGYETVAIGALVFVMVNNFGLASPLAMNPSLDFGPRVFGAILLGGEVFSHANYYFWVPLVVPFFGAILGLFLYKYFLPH

[3] = tested on: TbAQP2 expressed in tbaqp2 null; experiment: Drug sensitivity assay (resazurin); type: cell-based; details: Trypanosoma brucei
tbaqp2 null (AQP2-KO) = experiment: Drug sensitivity assay (resazurin); type: cell-based; details: Trypanosoma brucei
tbaqp2/tbaqp3 null cells = experiment: microbe, parasite or virus in culture; type: cell-based, Trypanosoma brucei brucei; details: Trypanosoma brucei
T. b. brucei 2T1 = experiment: Drug sensitivity assay (resazurin); type: cell-based; details: Trypanosoma brucei
Procedure: The tbaqp2/tbaqp3 null cells ([Baker et al., 2012]) and tbaqp1-2-3 null cells ([Jeacock et al., 2017]) (both obtained from David Horn, University of Dundee, UK) are derived from the 2T1 strain of T. b. brucei ([Alsford and Horn, 2008]). The CRK12 RNAi cell line^28 was obtained from Dr Tansy Hammarton (University of Glasgow, UK) and is also based on the 2T1 cell line; RNAi expression was induced with 1 µg/ml tetracycline in the medium. All experiments were performed with bloodstream form trypanosomes grown in vitro in HMI-11 medium as described ([Wallace et al., 2002]) at 37°C in a 5% CO2 atmosphere. Cultures were routinely maintained in 10 ml of this medium, being seeded at 5 × 10^4 cells/ml and passed to fresh medium at reaching approximately 3 × 10^6 cells/ml after 48 hr. For transport experiments 150 or 200 ml of culture was seeded at the same density in large flasks and incubated until the culture reached late-log phase.
Drug sensitivity assays for T. b. brucei bloodstream forms used the cell viability dye resazurin (Sigma) and were performed exactly as described ([Wallace et al., 2002]; [Bridges et al., 2007]) in 96-well plates with doubling dilutions of test compound, starting at 100 µM, over 2 rows of the plate (23 dilutions plus no-drug control). Incubation time with test compound was 48 hr (37°C/5% CO2), followed by an additional 24 hr in the presence of the dye.

[4] = 3 repeats, read-out: EC50, MEAN
[5] = read-out: EC50 AQP2-KO AVG, AQP2-KO / tbaqp2 null, 48 h drug + 24 h resazurin
[6] = 48 h drug + 24 h resazurin, read-out: EC50 control 2T1 AVG

Structure (SMILES): O=C(NO)c1ccccc1O [SHAM]
- EC50 ([1]; +L84M in KO AQP1-3, 3 repeats, read-out: EC50, MEAN): 18.1 µM
- EC50 ([1]; +L84M in KO AQP1-3, read-out: EC50, single repeats): 17.6 µM and 17.7 µM and 19.1 µM
- EC50 ([1]; +L84W in KO AQP1-3, 3 repeats, read-out: EC50, MEAN): 13.2 µM
- EC50 ([1]; +L84W in KO AQP1-3, read-out: EC50, single repeats): 11.3 µM and 13.7 µM and 14.6 µM
- EC50 ([1]; +L84W/L118W in KO AQP1-3, 3 repeats, read-out: EC50, MEAN): 12.2 µM
- EC50 ([1]; +L84W/L118W in KO AQP1-3, read-out: EC50, single repeats): 11.7 µM and 12.3 µM and 12.6 µM
- EC50 ([1]; +L118M in KO AQP1-3, 3 repeats, read-out: EC50, MEAN): 11.5 µM
- EC50 ([1]; +L118M in KO AQP1-3, read-out: EC50, single repeats): 10.9 µM and 12.3 µM and 11.4 µM
- EC50 ([1]; +L118W in KO AQP1-3, 3 repeats, read-out: EC50, MEAN): 10.8 µM
- EC50 ([1]; +L118W in KO AQP1-3, read-out: EC50, single repeats): 10.4 µM and 11.1 µM and 10.9 µM
- EC50 ([1]; +L218M in KO AQP1-3, 3 repeats, read-out: EC50, MEAN): 15.2 µM
- EC50 ([1]; +L218M in KO AQP1-3, read-out: EC50, single repeats): 15.8 µM and 12.7 µM and 17.1 µM
- EC50 ([1]; +L218W in KO AQP1-3, 3 repeats, read-out: EC50, MEAN): 15.9 µM
- EC50 ([1]; +L218W in KO AQP1-3, read-out: EC50, single repeats): 14.7 µM and 16.3 µM and 16.9 µM
- EC50 [2, 4]: 18.6 µM
- EC50 ([2]; read-out: EC50, single repeats): 18.5 µM and 18.1 µM and 19.2 µM
- EC50 (tbaqp1-2-3 null cells; [4]): 7.9 µM
- EC50 (tbaqp1-2-3 null cells; read-out: EC50, single repeats): 7.38 µM and 7.93 µM and 8.39 µM

Structure (SMILES): CC[n+]1c(-c2ccccc2)c2cc(N)ccc2c2ccc(N)cc21 [Ethidium]
- ΔG0 (TbAQP2/HAPT1): -5.47 kcal/mol
- δ(ΔG0) (TbAQP2/HAPT1): 4.71 kcal/mol
- Ki (TbAQP2/HAPT1; Ki): 97 µM
- EC50 [3]: 1.35 ± 0.11 µM
- EC50 (tbaqp2 null (AQP2-KO); [5]): 1.39 µM
- EC50 (tbaqp2/tbaqp3 null cells): 1.38 ± 0.14 µM
- EC50 (T. b. brucei 2T1; [6]): 1.32 µM

Structure (SMILES): CC[n+]1c(-c2ccccc2)c2cc(N/N=N/c3cccc(C(=N)N)c3)ccc2c2ccc(N)cc21 [Isometamidium]
- ΔG0 (TbAQP2/HAPT1): -7.43 kcal/mol
- δ(ΔG0) (TbAQP2/HAPT1): 2.72 kcal/mol
- Ki (TbAQP2/HAPT1; HAPT Ki, AVG): 3.54 µM
- Ki (TbAQP2/HAPT1; Ki): 3.5 µM
- EC50 [3]: 0.098 ± 0.024 µM
- EC50 (tbaqp2 null (AQP2-KO); [5]): 0.103 µM
- EC50 (tbaqp2 null (AQP2-KO); tbaqp2 null, read-out: EC50): 0.103 ± 0.014 µM
- EC50 (tbaqp2/tbaqp3 null cells): 0.095 ± 0.012 µM
- EC50 (T. b. brucei 2T1; [6]): 0.112 µM
- EC50 (T. b. brucei 2T1; read-out: EC50): 0.112 ± 0.012 µM
